According to article PMC13534584, “ATP13A4 gates extracellular polyamine levels to control excitatory synaptogenesis” (Nature Communications, 2026):
Where a chain is given by its changes, count along the chain named.

Legend:
Test in all cases: ADP-Glo Max ATPase assay, dose-response
Type in all cases: biochemical
Conditions in all cases: 5 mM ATP, 11 mM MgCl2, 100 mM KCl, MOPS-KOH pH 7, 37 °C, 0.001% DDM
hATP13A4 [1] = target: T1, hATP13A4 (Homo sapiens, UniProt Q4VNC1)
T1 construct: gene ATP13A4; solubilised in DDM
T1 sequence (Q4VNC1 1-1196): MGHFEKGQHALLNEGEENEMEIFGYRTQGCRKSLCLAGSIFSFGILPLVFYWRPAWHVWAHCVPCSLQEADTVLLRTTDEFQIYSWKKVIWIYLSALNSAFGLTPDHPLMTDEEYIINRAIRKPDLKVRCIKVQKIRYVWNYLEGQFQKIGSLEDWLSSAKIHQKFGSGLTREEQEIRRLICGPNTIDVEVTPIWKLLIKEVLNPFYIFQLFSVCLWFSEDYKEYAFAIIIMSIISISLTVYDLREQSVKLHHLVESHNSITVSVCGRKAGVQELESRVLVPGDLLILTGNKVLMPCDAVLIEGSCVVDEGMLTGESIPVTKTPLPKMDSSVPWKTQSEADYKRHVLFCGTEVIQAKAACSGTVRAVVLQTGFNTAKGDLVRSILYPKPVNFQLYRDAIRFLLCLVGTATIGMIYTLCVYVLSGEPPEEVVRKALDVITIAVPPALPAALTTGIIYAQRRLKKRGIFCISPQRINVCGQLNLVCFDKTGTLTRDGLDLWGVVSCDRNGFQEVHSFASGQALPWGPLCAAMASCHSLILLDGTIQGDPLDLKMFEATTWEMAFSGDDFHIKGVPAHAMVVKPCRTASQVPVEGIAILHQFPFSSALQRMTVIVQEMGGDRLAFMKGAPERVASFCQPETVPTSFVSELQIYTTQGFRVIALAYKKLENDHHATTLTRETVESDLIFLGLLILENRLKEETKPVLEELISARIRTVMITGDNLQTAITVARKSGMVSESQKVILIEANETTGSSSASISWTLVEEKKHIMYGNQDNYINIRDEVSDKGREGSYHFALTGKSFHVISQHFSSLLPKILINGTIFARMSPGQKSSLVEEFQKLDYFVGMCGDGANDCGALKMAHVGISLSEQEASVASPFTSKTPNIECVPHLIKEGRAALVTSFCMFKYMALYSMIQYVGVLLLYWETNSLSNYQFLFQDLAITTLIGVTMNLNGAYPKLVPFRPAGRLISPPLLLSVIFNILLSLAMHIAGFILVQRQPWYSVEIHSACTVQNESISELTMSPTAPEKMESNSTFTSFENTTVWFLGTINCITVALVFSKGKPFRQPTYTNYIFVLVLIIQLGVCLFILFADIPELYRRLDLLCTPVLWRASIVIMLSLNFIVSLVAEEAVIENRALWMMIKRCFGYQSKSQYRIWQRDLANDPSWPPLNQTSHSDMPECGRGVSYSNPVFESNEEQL

hATP13A4 [2] = target: T2, hATP13A4 (Homo sapiens, UniProt Q4VNC1, A356V)
T2 construct: gene ATP13A4; solubilised in DDM
T2 sequence (Q4VNC1 1-1196 A356V): T1 sequence (Q4VNC1 1-1196) with A356V

hATP13A4 [3] = target: T3, hATP13A4 (Homo sapiens, UniProt Q4VNC1, E276K)
T3 construct: gene ATP13A4; solubilised in DDM
T3 sequence (Q4VNC1 1-1196 E276K): T1 sequence (Q4VNC1 1-1196) with E276K

Row | Compound | ATPase stimulation (hATP13A4 [1]) | spermidine-dependent ATPase activity (hATP13A4 [2]) | spermidine-dependent ATPase activity (hATP13A4 [3])
1 | NCCCCNCCCN [SPD, spermidine] | each stimulated ATPase activity of purified wild-type (WT) hATP13A4 in a concentration-dependent manner | spermidine-dependent ATPase activity of purified, solubilized ATP13A4 (WT and disease-associated variants p.E276K, p.A356V | p.E276K reduces spermidine-stimulated ATPase activity to a similar extent as p.A356V and p.E646D
2 | NCCCNCCCCNCCCN [SPM, spermine] | ATP13A4 exhibits the highest apparent affinity for spermine and spermidine | – | –
3 | NCCCCCN [cadaverine] | Putrescine, spermidine, spermine, cadaverine, and acetylated polyamine derivatives each stimulated ATPase activity | – | –
